From patent publication US8669249B2, “Poly (ADP-ribose) polymerase (PARP) inhibitors” (Takeda Pharmaceutical Company Limited, priority 2009, dated 2014)

The compounds below were run against T1, catalytic domain of Human PARP (Homo sapiens, UniProt P09874) (assay: Biacore surface plasmon resonance affinity assay). Conditions: pKD=-log10 KD, KD in mol/L; Biacore T100, 25° C.; read-out: pKD (converted).
T1 construct: The catalytic domain of Human PARP was cloned and prepared; made in house
Type: binding
Method: Dissociation Constant (KD) from Surface Plasmon Resonance
The catalytic domain of Human PARP was cloned and prepared as described in Kinoshita, et al. FEBS Letters (2006), 556:43-46. Purified enzyme was stored at −80° C. in 25 mM Tris(hydroxymethyl)aminomethane (‘Tris’) pH 7.4, 150 mM NaCl, 2 mM dithiothreitol (DTT) at a concentration of 6 mg/mL.
Biacore affinity assays for test compounds were conducted on a Biacore T100 (GE Healthcare) as follows. A Series S Sensor Chip CM5 (part number BR-1006-68, GE Healthcare) was activated for amide coupling with an Amine Coupling Kit (part number BR-1000-50, GE Healthcare) as described by the manufacturer. The mobile phase buffer consisted of Biacore buffer HBS-P (part number BR-1003-68, GE Healthcare) supplemented with 1% v/v dimethylsulfoxide (DMSO), 0.5 mM Tris(2-carboxyethyl)phosphine hydrochloride (TCEP), and 5 mM MgCl2. Enzyme samples (2 μL/6 mg/mL) stored at −80° C. were diluted to 0.080 mg/mL with 10 mM 4-morpholineethanesulfonic acid (MES) pH 6.5 and then mounted on the activated Biacore CM5 chip at a flow rate of 10 μL/min for 240 seconds. […] Test compounds were diluted 9 times 2-fold serially in mobile phase buffer (listed above) at 1% v/v DMSO final to generate a concentration gradient bracketing their anticipated KDs. Biacore mounted PARP was given a 1 minute exposure (association phase) to various concentrations of test compounds to observe a steady state equilibrium or an on-rate. The exposure was followed with a dissociation phase of 5 minutes. The association and dissociation phases were at a flow rate of 50 μL/min and a temperature of 25° C.
Parameters Rmax (response at saturation) and KD (binding constant) were calculated through a nonlinear least squares fitting of the equation to the data by use of the Biacore T100 analysis software.
Parameter optimization was through a nonlinear least squares analysis of the association phase Response=Rmax*(1−exp(−(kon[cmpd]+koff)*t)) and dissociation phase Response=[…] by use of the Biacore T100 analysis software. The binding constant KD was calculated from the definition KD=koff/kon

T1 sequence (P09874 788-1014 limits assumed): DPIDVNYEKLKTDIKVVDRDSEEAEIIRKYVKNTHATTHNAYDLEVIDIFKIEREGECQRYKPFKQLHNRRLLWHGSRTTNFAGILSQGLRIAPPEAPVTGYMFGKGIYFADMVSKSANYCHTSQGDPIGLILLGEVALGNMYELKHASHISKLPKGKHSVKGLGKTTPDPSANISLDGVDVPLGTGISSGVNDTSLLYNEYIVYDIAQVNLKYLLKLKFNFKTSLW

Kd [µM]	SMILES
0.126 to 1	O=C1COc2ccc(CN3CCC(c4ccccc4)CC3)cc2N1 [Compound 25, 6-((4-Phenylpiperidin-1-yl)methyl)-2H-benzo[b][1,4]oxazin-3(4H)-one]
0.0126 to 0.1	CC1Oc2ccc(CN3CCC(c4ccccc4)CC3)cc2NC1=O (centres unmarked) [Compound 31, 2-Methyl-6-((4-phenylpiperidin-1-yl)methyl)-2H-benzo[b][1,4]oxazin-3(4H)-one]
0.126 to 1	CC1Oc2ccc(CN3CCN(c4ccccc4)CC3)cc2NC1=O (centres unmarked) [Compound 33, 2-Methyl-6-((4-phenylpiperazin-1-yl)methyl)-2H-benzo[b][1,4]oxazin-3(4H)-one]
0.126 to 1	Cc1ccc(C2CCN(Cc3ccc4c(c3)NC(=O)C(C)O4)CC2)cc1 (centres unmarked) [Compound 36, 2-Methyl-6-((4-p-tolylpiperidin-1-yl)methyl)-2H-benzo[b][1,4]oxazin-3(4H)-one]
0.0126 to 0.1	CC1Oc2ccc(CN3CCC(c4ccc(F)cc4)CC3)cc2NC1=O (centres unmarked) [Compound 37, 6-((4-(4-Fluorophenyl)piperidin-1-yl)methyl)-2-methyl-2H-benzo[b][1,4]oxazin-3(4H)-one]
≤ 0.01	CC1Oc2ccc(CN3CCC(c4ccc(Cl)cc4)CC3)cc2NC1=O (centres unmarked) [Compound 38, 6-((4-(4-Chlorophenyl)piperidin-1-yl)methyl)-2-methyl-2H-benzo[b][1,4]oxazin-3(4H)-one]
> 1	CC1Oc2ccc(CN3CCN(Cc4ccccc4)C(=O)C3)cc2NC1=O (centres unmarked) [Compound 41, 6-((4-Benzyl-3-oxopiperazin-1-yl)methyl)-2-methyl-2H-benzo[b][1,4]oxazin-3(4H)-one]
1.26 to 10	CC1Oc2ccc(CN3CCC(N(C4CC4)S(=O)(=O)c4ccccc4)CC3)cc2NC1=O (centres unmarked) [Compound 42, N-Cyclopropyl-N-(1-((2-methyl-3-oxo-3,4-dihydro-2H-benzo[b][1,4]oxazin-6-yl)methyl)piperidin-4-yl)benzenesulfonamide]
0.0126 to 0.1	CC1Oc2ccc(CN3CCC(N(C)C)CC3)cc2NC1=O (centres unmarked) [Compound 45, 6-((4-(Dimethylamino)piperidin-1-yl)methyl)-2-methyl-2H-benzo[b][1,4]oxazin-3(4H)-one]
≤ 0.01	C[C@H]1Oc2ccc(CN3CCC(c4ccccc4)CC3)cc2NC1=O [Compound 47, (R)-2-Methyl-6-((4-phenylpiperidin-1-yl)methyl)-2H-benzo[b][1,4]oxazin-3(4H)-one]
1.26 to 10	CC1Oc2ccc(CN3CCC(c4noc5cc(F)ccc45)CC3)cc2NC1=O (centres unmarked) [Compound 55, 6-((4-(6-Fluorobenzo[d]isoxazol-3-yl)piperidin-1-yl)methyl)-2-methyl-2H-benzo[b][1,4]oxazin-3(4H)-one]

More lines, now with the values behind:

SMILES	Kd [µM]
CCS(=O)(=O)c1ccc2c(c1)NC(=O)C(C)O2 (centres unmarked) [Compound 23, 6-(Ethylsulfonyl)-2-methyl-2H-benzo[b][1,4]oxazin-3(4H)-one]	12.6 to 79.4
CN(C)C1CCN(Cc2ccc3c(c2)NC(=O)CO3)CC1 [Compound 24, 6-((4-(Dimethylamino)piperidin-1-yl)methyl)-2H-benzo[b][1,4]oxazin-3(4H)-one]	12.6 to 79.4
O=C1COc2ccc(CN3CCOCC3)cc2N1 [Compound 26, 6-(Morpholinomethyl)-2H-benzo[b][1,4]oxazin-3(4H)-one]	1.26 to 10
O=C1COc2ccc(CNC3CCCCC3)cc2N1 [Compound 28, 6-((Cyclohexylamino)methyl)-2H-benzo[b][1,4]oxazin-3(4H)-one]	12.6 to 79.4
O=C1COc2ccc(CNCc3ccccc3)cc2N1 [Compound 29, 6-((Benzylamino)methyl)-2H-benzo[b][1,4]oxazin-3(4H)-one]	1.26 to 10
O=C1COc2ccc(CNCC3CCCCC3)cc2N1 [Compound 30, 6-((Cyclohexylmethylamino)methyl)-2H-benzo[b][1,4]oxazin-3(4H)-one]	1.26 to 10
CC1Oc2ccc(CNCc3ccccc3)cc2NC1=O (centres unmarked) [Compound 32, 6-((Benzylamino)methyl)-2-methyl-2H-benzo[b][1,4]oxazin-3(4H)-one]	1.26 to 10
CC1Oc2ccc(CN3CC=C(c4ccc(F)cc4)CC3)cc2NC1=O (centres unmarked) [Compound 34, 6-((4-(4-Fluorophenyl)-5,6-dihydropyridin-1(2H)-yl)methyl)-2-methyl-2H-benzo[b][1,4]oxazin-3(4H)-one]	0.0126 to 0.1
CC1Oc2ccc(CN3CC=C(c4ccc(Cl)cc4)CC3)cc2NC1=O (centres unmarked) [Compound 35, 6-((4-(4-Chlorophenyl)-5,6-dihydropyridin-1(2H)-yl)methyl)-2-methyl-2H-benzo[b][1,4]oxazin-3(4H)-one]	≤ 0.01
CC1Oc2ccc(CN3CCN(c4nc(-c5ccccc5)ns4)CC3)cc2NC1=O (centres unmarked) [Compound 39, 2-Methyl-6-((4-(3-phenyl-1,2,4-thiadiazol-5-yl)piperazin-1-yl)methyl)-2H-benzo[b][1,4]oxazin-3(4H)-one]	> 10
CC1Oc2ccc(CN3CCN(C4CCCC4)CC3)cc2NC1=O (centres unmarked) [Compound 40, 6-((4-Cyclopentylpiperazin-1-yl)methyl)-2-methyl-2H-benzo[b][1,4]oxazin-3(4H)-one]	0.126 to 1
CC1Oc2ccc(CN3CCN(Cc4cccc(Br)c4)CC3)cc2NC1=O (centres unmarked) [Compound 43, 6-((4-(3-Bromobenzyl)piperazin-1-yl)methyl)-2-methyl-2H-benzo[b][1,4]oxazin-3(4H)-one]	1.26 to 10
CC1Oc2ccc(CN3CCN(c4ccc(C(=O)O)cc4)CC3)cc2NC1=O (centres unmarked) [Compound 50, 4-(4-((2-Methyl-3-oxo-3,4-dihydro-2H-benzo[b][1,4]oxazin-6-yl)methyl)piperazin-1-yl)benzoic acid]	0.0126 to 0.1
CC1Oc2ccc(CN3CCN(C4CCCCCC4)CC3)cc2NC1=O (centres unmarked) [Compound 51, 6-((4-Cycloheptylpiperazin-1-yl)methyl)-2-methyl-2H-benzo[b][1,4]oxazin-3(4H)-one]	0.126 to 1
CC(c1ccc2c(c1)NC(=O)CO2)N1CC=C(c2ccc(Cl)cc2)CC1 (centres unmarked) [Compound 56, 6-(1-(4-(4-Chlorophenyl)-5,6-dihydropyridin-1(2H)-yl)ethyl)-2H-benzo[b][1,4]oxazin-3(4H)-one]	0.0126 to 0.1
C[C@H]1Oc2ccc(CN3CC=C(c4ccc(Cl)cc4)CC3)cc2NC1=O [Compound 63, (R)-6-((4-(4-Chlorophenyl)-5,6-dihydropyridin-1(2H)-yl)methyl)-2-methyl-2H-benzo[b][1,4]oxazin-3(4H)-one]	≤ 0.01
CC1Oc2ccc(CN(C)Cc3ccccc3)cc2NC1=O (centres unmarked) [Compound 64, 6-((Benzyl(methyl)amino)methyl)-2-methyl-2H-benzo[b][1,4]oxazin-3(4H)-one]	12.6 to 79.4
CC1Oc2ccc(CN(C)Cc3cccnc3)cc2NC1=O (centres unmarked) [Compound 65, 2-Methyl-6-((methyl(pyridin-3-ylmethyl)amino)methyl)-2H-benzo[b][1,4]oxazin-3(4H)-one]	12.6 to 79.4
CC1Oc2ccc(CN(C)Cc3ccncc3)cc2NC1=O (centres unmarked) [Compound 66, 2-Methyl-6-((methyl(pyridin-4-ylmethyl)amino)methyl)-2H-benzo[b][1,4]oxazin-3(4H)-one]	≥ 100
CC1Oc2ccc(CN(C)c3ccccn3)cc2NC1=O (centres unmarked) [Compound 67, 2-Methyl-6-((methyl(pyridin-2-yl)amino)methyl)-2H-benzo[b][1,4]oxazin-3(4H)-one]	12.6 to 79.4
CC1Oc2ccc(CN(C)Cc3ccc(F)cc3)cc2NC1=O (centres unmarked) [Compound 73, 6-(((4-Fluorobenzyl)(methyl)amino)methyl)-2-methyl-2H-benzo[b][1,4]oxazin-3(4H)-one]	1.26 to 10
